Experimental data as given in US20120172379A1, “4 SUBSTITUTED PYRAZOLOPYRIMIDINES” (VERTEX PHARMACEUTICALS INCORPORATED, priority 2009, published 2012).

Experiments:
Type in all cases: biochemical
PKC delta kinase = PKC delta kinase (Homo sapiens, UniProt Q05655); assay: PKC Delta coupled-enzyme kinase assay (NADH consumption, absorbance at 340 nm); details: 46 nM PKC delta kinase, ATP final assay concentration of 150, 150 μM substrate peptide, 30° C.
Method: An assay buffer solution was prepared which consisted of 100 mM HEPES (pH 7.5), 10 mM MgCl2, 25 mM NaCl, 0.1 mM EDTA and 0.01% Brij. An enzyme buffer containing reagents to final assay concentrations of 0.002% Triton X-100, 200 μg/mL Phosphatidylserine, 20 μg/mL Diacylglycerol; 360 μM NADH, 3 mM phosphoenolpyruvate, 70 μg/mL pyruvate kinase, 24 μg/mL lactate dehydrogenase, 2 mM DTT, 150 μM substrate peptide (ERMRPRKRQGSVRRRV SEQ ID NO. 2) and 46 nM PKC delta kinase was prepared in assay buffer. To 16 μL of this enzyme buffer, in a 384 well plate, was added 1 μL of VRT stock solution in DMSO. The mixture was allowed to equilibrate for 10 mins at 30° C. The enzyme reaction was initiated by the addition of 16 μL stock ATP solution prepared in assay buffer to a final assay concentration of 150 Initial rate data was determined from the rate of change of absorbance at 340 nm (corresponding to stoichiometric consumption of NADH) using a Molecular Devices Spectramax plate reader (Sunnyvale, Calif.) over 15 mins at 30° C. For each Ki determination 12 data points covering the VRT concentration range of 0-20 μM were obtained in duplicate (DMSO stocks were prepared from an initial 10 mM VRT stock with subsequent 1:2 serial dilutions). Ki values were calculated from initial rate data by non-linear regression using the Prism software package (Prism 4.0a, Graphpad Software, San Diego, Calif.).

PKC theta kinase = PKC theta kinase (Homo sapiens, UniProt Q04759); assay: PKC Theta coupled-enzyme kinase assay (NADH consumption, absorbance at 340 nm); details: 18 nM PKC theta kinase, 240 μM ATP, 100 μM substrate peptide, 30° C.
Method: An assay buffer solution was prepared which consisted of 100 mM HEPES (pH 7.5), 10 mM MgCl2, 25 mM NaCl, 0.1 mM EDTA and 0.01% Brij. An enzyme buffer containing reagents to final assay concentrations of 0.00001% Triton X-100, 200 μg/mL Phosphatidylserine, 20 μg/mL Diacylglycerol, 360 μM NADH, 3 mM phosphoenolpyruvate, 70 μg/mL pyruvate kinase, 24 μg/mL lactate dehydrogenase, 2 mM DTT, 100 μM substrate peptide (ERMRPRKRQGSVRRRV SEQ ID NO. 1) and 18 nM PKC theta kinase was prepared in assay buffer. To 60 μL of this enzyme buffer, in a 384 well plate, was added 2 μL of VRT stock solution in DMSO. The mixture was allowed to equilibrate for 10 mins at 30° C. The enzyme reaction was initiated by the addition of 5 μL stock ATP solution prepared in assay buffer to a final assay concentration of 240 μM. Initial rate data was determined from the rate of change of absorbance at 340 nm (corresponding to stoichiometric consumption of NADH) using a Molecular Devices Spectramax plate reader (Sunnyvale, Calif.) over 15 mins at 30° C. For each Ki determination 12 data points covering the VRT concentration range of 0-20 μM were obtained in duplicate (DMSO stocks were prepared from an initial 10 mM VRT stock with subsequent 1:2 serial dilutions). Ki values were calculated from initial rate data by non-linear regression using the Prism software package (Prism 4.0a, Graphpad Software, San Diego, Calif.). […] 1.25 D>2.8 μM.

PKC alpha kinase = PKC alpha kinase (Homo sapiens, UniProt P17252); assay: PKC Alpha coupled-enzyme kinase assay (NADH consumption, absorbance at 340 nm); details: 4.5 nM PKC alpha kinase, 130 μM ATP, 150 μM substrate peptide, 100 μM CaCl2, 30° C.
Method: An assay buffer solution was prepared which consisted of 100 mM HEPES (pH 7.5), 10 mM MgCl2, 25 mM NaCl, 0.1 mM EDTA, 100 μM CaCl2 and 0.01% Brij. An enzyme buffer containing reagents to final assay concentrations of 0.002% Triton X-100, 100 μg/mL Phosphatidylserine, 20 μg/mL Diacylglycerol, 360 μM NADH, 3 mM phosphoenolpyruvate, 70 μg/mL pyruvate kinase, 24 μg/mL lactate dehydrogenase, 2 mM DTT, 150 μM substrate peptide (RRRRRKGSFKRKA SEQ ID NO. 3) and 4.5 nM PKC alpha kinase was prepared in assay buffer. To 16 μL of this enzyme buffer, in a 384 well plate, was added 1 μL of VRT stock solution in DMSO. The mixture was allowed to equilibrate for 10 mins at 30° C. The enzyme reaction was initiated by the addition of 16 μL stock ATP solution prepared in assay buffer to a final assay concentration of 130 μM. Initial rate data was determined from the rate of change of absorbance at 340 nm (corresponding to stoichiometric consumption of NADH) using a Molecular Devices Spectramax plate reader (Sunnyvale, Calif.) over 15 mins at 30° C. For each Ki determination 12 data points covering the VRT concentration range of 0-20 μM were obtained in duplicate (DMSO stocks were prepared from an initial 10 mM VRT stock with subsequent 1:2 serial dilutions). Ki values were calculated from initial rate data by non-linear regression using the Prism software package (Prism 4.0a, Graphpad Software, San Diego, Calif.).

Sequence of PKC delta kinase (Q05655 whole entry): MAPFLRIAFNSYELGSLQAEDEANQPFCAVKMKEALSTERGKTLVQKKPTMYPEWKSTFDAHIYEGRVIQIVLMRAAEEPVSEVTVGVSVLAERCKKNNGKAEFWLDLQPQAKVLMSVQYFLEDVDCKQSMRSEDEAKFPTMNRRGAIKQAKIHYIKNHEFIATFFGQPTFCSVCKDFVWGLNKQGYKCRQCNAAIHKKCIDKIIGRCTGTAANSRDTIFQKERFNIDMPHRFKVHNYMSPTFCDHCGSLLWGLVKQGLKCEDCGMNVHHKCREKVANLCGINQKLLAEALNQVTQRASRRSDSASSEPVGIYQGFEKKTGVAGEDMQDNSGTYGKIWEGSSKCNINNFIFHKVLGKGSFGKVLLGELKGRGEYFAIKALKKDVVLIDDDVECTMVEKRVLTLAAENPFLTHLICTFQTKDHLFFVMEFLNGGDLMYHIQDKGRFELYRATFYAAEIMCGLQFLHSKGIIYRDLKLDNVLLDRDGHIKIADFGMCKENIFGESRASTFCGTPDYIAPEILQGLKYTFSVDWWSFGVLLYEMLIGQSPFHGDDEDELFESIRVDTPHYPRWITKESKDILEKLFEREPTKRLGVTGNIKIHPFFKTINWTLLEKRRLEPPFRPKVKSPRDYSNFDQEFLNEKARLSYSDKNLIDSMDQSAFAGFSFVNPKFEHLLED
Sequence of PKC theta kinase (Q04759 whole entry): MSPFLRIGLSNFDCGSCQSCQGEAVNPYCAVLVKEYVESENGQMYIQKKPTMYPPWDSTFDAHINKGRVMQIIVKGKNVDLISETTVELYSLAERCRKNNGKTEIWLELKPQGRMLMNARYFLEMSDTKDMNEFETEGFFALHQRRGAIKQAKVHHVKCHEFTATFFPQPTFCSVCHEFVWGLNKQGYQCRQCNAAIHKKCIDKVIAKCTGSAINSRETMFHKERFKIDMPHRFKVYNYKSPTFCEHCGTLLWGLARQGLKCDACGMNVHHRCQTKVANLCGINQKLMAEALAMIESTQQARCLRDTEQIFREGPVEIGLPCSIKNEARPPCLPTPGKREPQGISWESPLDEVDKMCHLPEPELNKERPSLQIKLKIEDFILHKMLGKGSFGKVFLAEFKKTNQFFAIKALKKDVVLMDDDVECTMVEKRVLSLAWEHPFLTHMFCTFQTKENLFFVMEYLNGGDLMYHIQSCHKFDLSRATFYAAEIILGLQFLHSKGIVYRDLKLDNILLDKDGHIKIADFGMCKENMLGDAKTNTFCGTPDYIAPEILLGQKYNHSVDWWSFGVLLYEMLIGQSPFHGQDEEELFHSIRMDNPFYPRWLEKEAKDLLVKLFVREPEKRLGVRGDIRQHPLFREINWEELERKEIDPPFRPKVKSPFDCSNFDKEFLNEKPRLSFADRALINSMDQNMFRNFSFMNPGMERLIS

| SMILES | Ki (PKC delta kinase) [nM] | Ki (PKC theta kinase) [nM] | Ki (PKC alpha kinase) [nM] |
| --- | --- | --- | --- |
| N#CC1(c2cccc(-c3ncnc4[nH]nc(C5CC5)c34)c2)CC1 [Compound 1, 1-(3-(3-cyclopropyl-1H-pyrazolo[3,4-d]pyrimidin-4-yl)phenyl)cyclopropanecarbonitrile] | > 1250 | 50 to 500 | > 1250 |
| Cc1n[nH]c2ncnc(-c3cccc(C4(C#N)CC4)c3)c12 [Compound 4] | > 1250 | < 50 | > 1250 |
| NC(=O)C1(c2cccc(-c3ncnc4[nH]nc(C(F)(F)F)c34)c2)CC1 [Compound 7, 1-(3-(3-(trifluoromethyl)-1H-pyrazolo[3,4-d]pyrimidin-4-yl)phenyl)cyclopropanecarboxamide] | > 1250 | > 700 | > 1250 |
| Cc1n[nH]c2ncnc(-c3cccc(C4(CN)CC4)c3)c12 [Compound 6] | 500 to 2800 | 50 to 500 | > 1250 |
| CCc1n[nH]c2ncnc(-c3cccc(C4(CN)CC4)c3)c12 [Compound 5, (1-(3-(3-ethyl-1H-pyrazolo[3,4-d]pyrimidin-4-yl)phenyl)cyclopropyl)methanamine] | 50 to 500 | < 50 | 500 to 2800 |
| N#CC1(c2cccc(-c3ncnc4[nH]ncc34)c2)CC1 [Compound 3, 1-(3-(1H-pyrazolo[3,4-d]pyrimidin-4-yl)phenyl)cyclopropane carbonitrile] | 500 to 2800 | < 50 | > 1250 |
| CCc1n[nH]c2ncnc(-c3cc(F)cc(C4(CN)CCC4)c3)c12 [Compound 8, (1-(3-(3-ethyl-1H-pyrazolo[3,4-d]pyrimidin-4-yl)-5-fluorophenyl)cyclobutyl)methanamine] | 50 to 500 | < 50 | 50 to 500 |
| CCc1n[nH]c2ncnc(-c3cccc(C4(C#N)CC4)c3)c12 [Compound 2] | – | < 50 | > 1250 |
